Measured values from patent US8642807B2, “Crystallized diacetylenic indicator compounds and methods of preparing the compounds” (Temptime Corporation, priority 2007, dated 2014).

Columns and labels:
[1] = Room temperature solubility of 4DOD in solvent systems, saturated solution dried and weighed (Example 2A); type: physicochemical; settings: about 25° C.; for Calculated solubility of 4DOD: stirred 16 hours
Procedure: To serve as indicator agent, a […] polymerizable diacetylenic monomer, namely 5,7-dodecadiyn-1,12 diol bis(n-octadecyl urethane), “4DOD” hereinafter, is synthesized in sufficient quantity for preparation of a master batch of ink, by the method described in Yee U.S. Pat. No. 4,215,208 at column 17, lines 47-65 and is stored in a freezer. A small quantity of 4DOD is taken from frozen storage and is tested at room temperature for solubility in various solvent systems employing the following procedure.
100 g of deionized water is weighed into a 200 mL glass beaker. 4DOD powder is added to the glass beaker until the solution is saturated allowing excess 4DOD to remain present as undissolved solid. 75 g of deionized water is weighed into another 200 mL glass beaker, and 25 g acetone is added. 4DOD is then added to the water-acetone solvent system in the glass beaker until the solution is saturated and an excess of 4DOD remains as undissolved solid. 75 g of deionized water is weighed into a third 200 mL glass beaker. 25 g ethanol is added to the water and then 4DOD is added to the water-ethanol mixture until the solution is saturated and an excess of 4DOD remains as undissolved solid. Each solution is stirred on a magnetic plate for 16 hours at a controlled room temperature of about 25° C.
After 16 hours of stirring, 7 g of each solution (soluble portion only, avoiding any undissolved solid material) is transferred to a separate aluminum foil pan. The aluminum foil pans are left to stand under a fume hood for 2 hours to allow any volatile solvent to evaporate, and are then dried in a vacuum oven for one 1 hour. Each aluminum foil pan is then weighed and the solubility of the 4DOD in each solvent system is calculated in terms of the percent of solute based on the weight of the solvent system.

[2] = Comparative color-change reactivities of pressed pellets, cyan optical density after ageing at 37, 45 or 70° C. (Example 4); type: physicochemical; settings: for color change kinetics / reactivity relative to raw product: 37° C., FIG. 12; for activation energy: color-change (solid-state polymerization) reaction of pellets
Procedure: Sample pellets are prepared from crystalline diacetylenic monomer powder using an E-Z Press 12-Ton Hydraulic Press and KBr Pellet Kit with 13 mm die set, as supplied by International Crystal Laboratories (Garfield, N.J.). Using about 300 mg powder, a pressure of 5 to 8 tons is applied for 2-3 minutes. Samples of 2,4-hexadiyn-1,6-bis(ethylurea) precipitated from dimethyl sulfoxide, methanol and a 4:1 by weight ethanol/water mixture are prepared. Pellets of raw 2,4-hexadiyn-1,6-bis(ethylurea) crystals (“KE raw”), precipitated from a solution in hot glacial acetic acid, using methanol as a precipitant, shortly after the 2,4-hexadiyn-1,6-bis(ethylurea) was synthesized, are included as controls.
While being handled by the edges, an individual pellet is placed in a transparent heat-seal bag, about 50 mm by 115 mm, vacuum sealed and placed into a heat-sealable foil pouch. The foil pouch is vacuum-sealed using a Fuji Impulse tabletop vacuum heat sealer. The sealed foil pouch containing the pellets is stored in a freezer at −30° C., or other suitable temperature, until ready for testing.
The heat-sealed foil pouch samples containing the pellets are placed in a water bath, for example a Huber circulating water bath, set to appropriate temperatures for example 37° C., 45° C. or 70° C., and aged for suitable measured time periods such as a few days at 37° C. or a few hours at 70° C. where the reaction proceeds more rapidly. The samples are weighted to keep them immersed in the water during the test. Timing is started immediately after each pouch is placed into the water bath. The pouch is removed at the end of the designated test period and its optical density is measured.
To measure optical density the pouch is briefly immersed in a second water bath set at 20° C. to quench the sample and prevent further color change during measurement. The foil pouch is cut open leaving the pellet inside the transparent heat-sealed bag. The reaction kinetics of the diacetylenic monomer are determined by measuring the cyan optical density (O.D.) of the aged pellets using an X-Rite 404 color reflection densitometer. The optical density can be measured on an arbitrary scale and used for comparative indications of color change reactivity.
In order to compensate for the thickness of the pellets, which are about 2 mm thick, when using the densitometer, the densitometer can be raised on to an elevated platform of corresponding height.

With “5,7-dodecadiyn-1,12-bis-n-octadecyl urethane [4DOD]” the “Calculated solubility of 4DOD” value ([1]; 75% Water 25% Acetone) was 10% wt %, the “Calculated solubility of 4DOD” value ([1]; 100% Acetone) was 32% wt % and the “Calculated solubility of 4DOD” value ([1]; 100% Ethanol) was 37% wt %. For the same compound, the “Calculated solubility of 4DOD” value ([1]; Water) was 0.03% wt %, the “solubility in the individual organic solvent alone, in words” value ([1]; ethanol or acetone alone) was “remarkably high solubility” and the “solubility in water, in words” value ([1]; water) was “minimal solubility”.
In the case of `CCNC(=O)NCC#CC#CCNC(=O)NCC` [2,4-hexadiyn-1,6-bis(ethylurea) crystallized from pyridine], the “color change kinetics / reactivity relative to raw product” value [2] is reported as “faster color change kinetics than does the raw product” and the activation energy [2] is reported as “about 19 kcal/mol”.
Work on `CCNC(=O)NCC#CC#CCNC(=O)NCC` [raw product, 2,4-hexadiyn-1,6-bis(ethylurea), reference compound] yielded an activation energy [2] of 23 kcal/mol.
With `CCNC(=O)NCC#CC#CCNC(=O)NCC` [2,4-hexadiyn-1,6-bis(ethylurea)] the “color change kinetics / reactivity relative to raw product” value [2] was “modestly faster reactivity than raw 2,4-hexadiyn-1,6-bis(ethylurea)” and the reactivity profile ([2]; 45° C., FIG. 13) was “close to that of the pyridine product”.
